From ChEMBL document CHEMBL4507291 (2021)

Key:
[1] = molecular target: T1, Serine/threonine-protein kinase BRSK1 (Homo sapiens) (UniProt Q8TDC3); assay: BRSK1 (SAD1) Kinase screen; conditions: Compound concentration 1.0 uM
T1 sequence (whole entry): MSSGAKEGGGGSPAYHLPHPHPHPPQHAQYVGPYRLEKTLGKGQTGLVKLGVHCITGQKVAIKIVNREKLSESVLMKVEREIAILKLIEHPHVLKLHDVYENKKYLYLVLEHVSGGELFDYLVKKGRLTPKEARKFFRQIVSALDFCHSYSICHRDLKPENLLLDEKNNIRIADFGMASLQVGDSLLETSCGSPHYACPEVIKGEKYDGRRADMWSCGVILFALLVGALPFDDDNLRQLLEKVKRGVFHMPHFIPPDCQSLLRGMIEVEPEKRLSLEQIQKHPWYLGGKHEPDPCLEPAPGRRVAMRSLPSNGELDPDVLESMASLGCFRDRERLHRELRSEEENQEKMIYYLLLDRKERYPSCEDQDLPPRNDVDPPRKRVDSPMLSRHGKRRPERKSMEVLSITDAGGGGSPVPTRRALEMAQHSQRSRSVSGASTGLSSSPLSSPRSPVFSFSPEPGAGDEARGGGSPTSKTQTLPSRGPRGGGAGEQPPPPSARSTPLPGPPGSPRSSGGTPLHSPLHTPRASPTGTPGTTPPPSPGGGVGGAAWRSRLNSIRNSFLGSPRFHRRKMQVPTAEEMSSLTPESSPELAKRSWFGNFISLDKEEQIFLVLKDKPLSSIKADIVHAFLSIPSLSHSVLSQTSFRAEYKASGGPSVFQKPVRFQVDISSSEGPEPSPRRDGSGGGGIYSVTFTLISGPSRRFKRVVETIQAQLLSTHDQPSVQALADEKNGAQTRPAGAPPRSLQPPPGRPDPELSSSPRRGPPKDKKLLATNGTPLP

[2] = molecular target: Dual specificity mitogen-activated protein kinase kinase 2 (Homo sapiens) (UniProt P36507); assay: MAP2K2 (MEK2) Kinase screen; conditions: Compound concentration 1.0 uM
[3] = molecular target: Caspase-8 (Homo sapiens) (UniProt Q14790); assay: Peptidase, CASP8 (Caspase 8) Eurofins-Panlabs enzyme assay; conditions: Compound concentration 10.0 uM
Caspase-8 (Homo sapiens), sequence (Q14790 217-374 limits assumed): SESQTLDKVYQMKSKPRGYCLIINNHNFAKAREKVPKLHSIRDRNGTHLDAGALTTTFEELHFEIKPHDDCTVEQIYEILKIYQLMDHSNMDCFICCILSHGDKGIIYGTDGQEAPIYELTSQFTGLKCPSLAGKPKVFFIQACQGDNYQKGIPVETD
Caspase-8 (Homo sapiens), sequence (Q14790 385-479 limits assumed): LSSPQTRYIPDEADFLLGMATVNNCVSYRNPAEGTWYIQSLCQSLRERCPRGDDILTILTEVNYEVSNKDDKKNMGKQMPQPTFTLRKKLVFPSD

[4] = molecular target: Vascular endothelial growth factor receptor 3 (Homo sapiens) (UniProt P35916); assay: FLT4 (VEGFR3) Kinase screen; conditions: Compound concentration 1.0 uM
[5] = molecular target: Neuropeptide Y receptor type 1 (Homo sapiens) (UniProt P25929); assay: Inhibition of Neuropeptide Y Y1 at 10 µM in the Eurofins-Panlabs radioligand binding assay (Eurofins_assay_257010); conditions: Compound concentration 10.0 uM
[6] = molecular target: Endothelin-1 receptor (Homo sapiens) (UniProt P25101); conditions: Compound concentration 10.0 uM
[7] = molecular target: Histamine H2 receptor (Homo sapiens) (UniProt P25021); conditions: Compound concentration 10.0 uM
[8] = molecular target: Tyrosine-protein kinase Yes (Homo sapiens) (UniProt P07947); assay: YES1 Kinase screen; conditions: Compound concentration 1.0 uM
Tyrosine-protein kinase Yes (Homo sapiens), sequence (P07947 2-543 limits assumed): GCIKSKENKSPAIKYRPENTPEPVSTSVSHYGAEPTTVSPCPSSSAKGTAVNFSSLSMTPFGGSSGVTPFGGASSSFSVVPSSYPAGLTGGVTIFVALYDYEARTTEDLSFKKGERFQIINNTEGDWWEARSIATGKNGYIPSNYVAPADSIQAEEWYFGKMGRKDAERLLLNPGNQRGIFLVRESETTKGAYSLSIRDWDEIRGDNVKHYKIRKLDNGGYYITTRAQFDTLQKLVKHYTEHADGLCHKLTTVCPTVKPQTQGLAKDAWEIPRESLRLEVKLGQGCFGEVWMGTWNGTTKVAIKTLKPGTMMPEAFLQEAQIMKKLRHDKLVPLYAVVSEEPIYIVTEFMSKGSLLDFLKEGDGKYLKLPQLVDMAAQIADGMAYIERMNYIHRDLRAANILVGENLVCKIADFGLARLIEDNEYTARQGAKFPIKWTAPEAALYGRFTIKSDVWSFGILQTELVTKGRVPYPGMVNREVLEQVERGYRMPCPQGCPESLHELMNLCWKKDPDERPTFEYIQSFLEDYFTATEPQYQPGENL

[9] = molecular target: AMPK alpha2/beta1/gamma1 (Homo sapiens) (UniProt P54646+P54619+Q9Y478); assay: AMPK A2/B1/G1 Kinase screen; assay type: protein-complex assay; conditions: Compound concentration 1.0 uM
AMPK alpha2/beta1/gamma1 (Homo sapiens), sequence (P54619 whole entry partner): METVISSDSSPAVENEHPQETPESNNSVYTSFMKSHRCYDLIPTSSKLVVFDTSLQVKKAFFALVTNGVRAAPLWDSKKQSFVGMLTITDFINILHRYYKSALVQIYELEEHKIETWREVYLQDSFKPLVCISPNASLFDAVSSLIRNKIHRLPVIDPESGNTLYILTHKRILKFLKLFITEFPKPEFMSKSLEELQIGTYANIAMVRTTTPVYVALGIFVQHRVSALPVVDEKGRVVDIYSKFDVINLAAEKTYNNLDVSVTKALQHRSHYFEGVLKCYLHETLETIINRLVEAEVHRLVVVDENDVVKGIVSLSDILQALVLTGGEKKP
AMPK alpha2/beta1/gamma1 (Homo sapiens), sequence (P54646 whole entry): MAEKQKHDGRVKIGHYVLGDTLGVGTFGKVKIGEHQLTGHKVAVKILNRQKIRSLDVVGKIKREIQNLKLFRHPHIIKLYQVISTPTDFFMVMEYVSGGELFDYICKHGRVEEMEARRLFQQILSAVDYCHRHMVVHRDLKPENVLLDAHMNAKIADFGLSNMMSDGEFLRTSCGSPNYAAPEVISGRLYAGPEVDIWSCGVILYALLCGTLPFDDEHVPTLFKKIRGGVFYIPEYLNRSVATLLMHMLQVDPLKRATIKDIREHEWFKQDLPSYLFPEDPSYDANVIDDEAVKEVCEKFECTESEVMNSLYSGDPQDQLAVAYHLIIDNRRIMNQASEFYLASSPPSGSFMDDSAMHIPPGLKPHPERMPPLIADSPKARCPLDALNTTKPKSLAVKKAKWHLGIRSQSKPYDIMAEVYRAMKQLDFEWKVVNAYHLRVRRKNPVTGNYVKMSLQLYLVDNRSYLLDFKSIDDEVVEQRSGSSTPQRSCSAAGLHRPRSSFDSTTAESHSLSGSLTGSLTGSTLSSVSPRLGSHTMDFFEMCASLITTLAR
AMPK alpha2/beta1/gamma1 (Homo sapiens), sequence (Q9Y478 2-270 partner limits assumed): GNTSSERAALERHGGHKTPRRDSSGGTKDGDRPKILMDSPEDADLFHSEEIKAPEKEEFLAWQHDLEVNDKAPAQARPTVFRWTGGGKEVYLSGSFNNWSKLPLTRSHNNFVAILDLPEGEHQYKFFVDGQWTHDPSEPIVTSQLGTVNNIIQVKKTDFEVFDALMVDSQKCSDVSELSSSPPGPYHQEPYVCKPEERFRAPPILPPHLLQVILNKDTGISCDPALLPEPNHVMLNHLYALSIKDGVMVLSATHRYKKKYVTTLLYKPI

[10] = molecular target: T2, Serine/threonine-protein kinase 17A (Homo sapiens) (UniProt Q9UEE5); assay: STK17A (DRAK1) Kinase screen; conditions: Compound concentration 1.0 uM
T2 sequence (whole entry): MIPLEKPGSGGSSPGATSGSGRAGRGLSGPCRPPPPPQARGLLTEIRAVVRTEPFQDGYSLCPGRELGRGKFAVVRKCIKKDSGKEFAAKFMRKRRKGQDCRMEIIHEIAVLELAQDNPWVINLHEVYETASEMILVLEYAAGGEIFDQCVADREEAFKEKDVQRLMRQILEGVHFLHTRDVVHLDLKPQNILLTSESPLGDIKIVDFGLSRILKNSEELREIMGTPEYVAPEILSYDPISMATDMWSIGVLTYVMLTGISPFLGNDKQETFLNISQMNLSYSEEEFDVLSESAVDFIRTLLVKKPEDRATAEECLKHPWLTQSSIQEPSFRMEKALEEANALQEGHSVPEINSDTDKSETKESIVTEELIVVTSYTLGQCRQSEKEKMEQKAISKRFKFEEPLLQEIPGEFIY

[11] = molecular target: Tyrosine-protein kinase ABL2 (Homo sapiens) (UniProt P42684); assay: ABL2 (Arg) Kinase screen; conditions: Compound concentration 1.0 uM
Tyrosine-protein kinase ABL2 (Homo sapiens), sequence (P42684 whole entry): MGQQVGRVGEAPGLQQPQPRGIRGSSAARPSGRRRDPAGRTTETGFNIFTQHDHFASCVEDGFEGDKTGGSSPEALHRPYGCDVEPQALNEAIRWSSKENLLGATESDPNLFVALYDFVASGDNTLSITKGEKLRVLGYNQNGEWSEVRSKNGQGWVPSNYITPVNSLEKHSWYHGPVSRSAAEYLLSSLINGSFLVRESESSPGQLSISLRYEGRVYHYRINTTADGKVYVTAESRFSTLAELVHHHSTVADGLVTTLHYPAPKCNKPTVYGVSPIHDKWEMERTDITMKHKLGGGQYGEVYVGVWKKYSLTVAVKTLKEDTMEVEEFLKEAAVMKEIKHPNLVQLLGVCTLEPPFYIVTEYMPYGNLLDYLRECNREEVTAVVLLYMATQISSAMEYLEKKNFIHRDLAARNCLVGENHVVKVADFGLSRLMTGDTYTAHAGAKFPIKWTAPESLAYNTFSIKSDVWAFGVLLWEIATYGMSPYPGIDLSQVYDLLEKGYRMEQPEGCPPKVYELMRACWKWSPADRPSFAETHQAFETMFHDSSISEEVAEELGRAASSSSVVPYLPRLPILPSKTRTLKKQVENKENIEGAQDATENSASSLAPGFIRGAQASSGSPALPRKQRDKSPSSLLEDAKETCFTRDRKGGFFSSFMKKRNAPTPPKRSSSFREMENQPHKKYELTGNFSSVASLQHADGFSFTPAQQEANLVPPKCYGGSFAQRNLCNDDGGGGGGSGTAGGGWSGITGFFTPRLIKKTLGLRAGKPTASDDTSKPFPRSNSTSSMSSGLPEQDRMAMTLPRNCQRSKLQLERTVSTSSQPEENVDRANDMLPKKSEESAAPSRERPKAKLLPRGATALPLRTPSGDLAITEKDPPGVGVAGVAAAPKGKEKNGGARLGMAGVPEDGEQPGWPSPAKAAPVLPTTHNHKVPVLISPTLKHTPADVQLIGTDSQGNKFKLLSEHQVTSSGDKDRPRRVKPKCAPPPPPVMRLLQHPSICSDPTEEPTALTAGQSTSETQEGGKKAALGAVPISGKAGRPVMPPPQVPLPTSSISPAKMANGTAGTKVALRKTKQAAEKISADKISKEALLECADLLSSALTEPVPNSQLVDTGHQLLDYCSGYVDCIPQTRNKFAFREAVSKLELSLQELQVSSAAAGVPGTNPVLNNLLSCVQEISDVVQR

[12] = molecular target: MAP/microtubule affinity-regulating kinase 3 (Homo sapiens) (UniProt P27448); assay: MARK3 Kinase screen; conditions: Compound concentration 1.0 uM
MAP/microtubule affinity-regulating kinase 3 (Homo sapiens), sequence (P27448 whole entry, looked up): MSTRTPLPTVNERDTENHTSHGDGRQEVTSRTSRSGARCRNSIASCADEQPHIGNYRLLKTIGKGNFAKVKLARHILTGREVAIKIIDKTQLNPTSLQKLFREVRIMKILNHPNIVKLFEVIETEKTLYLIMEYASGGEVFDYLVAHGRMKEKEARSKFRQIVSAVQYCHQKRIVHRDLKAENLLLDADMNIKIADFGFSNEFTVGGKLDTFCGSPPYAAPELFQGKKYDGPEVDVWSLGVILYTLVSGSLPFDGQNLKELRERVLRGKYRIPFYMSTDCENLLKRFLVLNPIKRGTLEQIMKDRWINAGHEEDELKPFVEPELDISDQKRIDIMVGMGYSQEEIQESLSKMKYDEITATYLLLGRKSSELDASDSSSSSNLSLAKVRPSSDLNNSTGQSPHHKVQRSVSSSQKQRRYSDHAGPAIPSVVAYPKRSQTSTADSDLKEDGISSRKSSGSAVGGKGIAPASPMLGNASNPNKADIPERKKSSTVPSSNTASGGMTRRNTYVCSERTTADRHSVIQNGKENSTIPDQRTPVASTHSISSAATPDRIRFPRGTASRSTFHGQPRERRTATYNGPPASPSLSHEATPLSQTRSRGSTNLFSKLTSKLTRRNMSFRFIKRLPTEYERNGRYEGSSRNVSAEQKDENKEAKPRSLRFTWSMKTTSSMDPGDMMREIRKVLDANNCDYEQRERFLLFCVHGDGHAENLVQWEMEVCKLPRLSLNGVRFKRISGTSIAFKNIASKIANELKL

[13] = molecular target: T3, Alpha-2B adrenergic receptor (Homo sapiens) (UniProt P18089); conditions: Compound concentration 10.0 uM
T3 sequence (whole entry): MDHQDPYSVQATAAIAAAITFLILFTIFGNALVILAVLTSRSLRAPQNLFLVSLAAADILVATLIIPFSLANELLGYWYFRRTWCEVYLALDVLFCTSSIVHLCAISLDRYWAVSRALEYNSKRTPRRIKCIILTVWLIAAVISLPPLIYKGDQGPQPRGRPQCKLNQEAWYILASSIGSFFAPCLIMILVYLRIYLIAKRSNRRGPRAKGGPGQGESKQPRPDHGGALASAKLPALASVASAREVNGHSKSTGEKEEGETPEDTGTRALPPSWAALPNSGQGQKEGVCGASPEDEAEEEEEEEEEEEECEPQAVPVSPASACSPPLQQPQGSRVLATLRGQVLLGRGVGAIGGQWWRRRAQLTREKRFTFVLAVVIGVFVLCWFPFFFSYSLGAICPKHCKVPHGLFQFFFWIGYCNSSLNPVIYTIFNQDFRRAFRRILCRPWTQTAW

[14] = molecular target: Gamma-aminobutyric acid type B receptor subunit 1 (Homo sapiens) (UniProt Q9UBS5); conditions: Rattus norvegicus; Compound concentration 10.0 uM
[15] = molecular target: Dual specificity protein kinase CLK3 (Homo sapiens) (UniProt P49761); assay: CLK3 Kinase screen; conditions: Compound concentration 1.0 uM
Dual specificity protein kinase CLK3 (Homo sapiens), sequence (P49761 whole entry, looked up): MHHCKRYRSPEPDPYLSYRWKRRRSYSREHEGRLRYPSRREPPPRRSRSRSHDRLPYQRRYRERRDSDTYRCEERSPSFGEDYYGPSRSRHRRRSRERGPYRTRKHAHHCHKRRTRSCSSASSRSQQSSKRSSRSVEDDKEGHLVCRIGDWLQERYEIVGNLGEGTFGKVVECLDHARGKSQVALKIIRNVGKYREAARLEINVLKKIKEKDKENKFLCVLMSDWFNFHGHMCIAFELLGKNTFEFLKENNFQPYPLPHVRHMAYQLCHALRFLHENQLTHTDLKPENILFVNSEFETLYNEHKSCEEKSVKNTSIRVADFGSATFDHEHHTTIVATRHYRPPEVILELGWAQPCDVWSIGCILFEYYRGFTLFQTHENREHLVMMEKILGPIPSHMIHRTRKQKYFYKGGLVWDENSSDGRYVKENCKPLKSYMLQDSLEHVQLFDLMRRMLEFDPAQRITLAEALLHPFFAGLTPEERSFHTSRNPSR

[16] = molecular target: Vasoactive intestinal polypeptide receptor 1 (Homo sapiens) (UniProt P32241); assay: Inhibition of Vasoactive Intestinal Peptide VIP1 at 10 µM in the Eurofins-Panlabs radioligand binding assay (Eurofins_assay_287010); conditions: Compound concentration 10.0 uM
Vasoactive intestinal polypeptide receptor 1 (Homo sapiens), sequence (P32241 whole entry): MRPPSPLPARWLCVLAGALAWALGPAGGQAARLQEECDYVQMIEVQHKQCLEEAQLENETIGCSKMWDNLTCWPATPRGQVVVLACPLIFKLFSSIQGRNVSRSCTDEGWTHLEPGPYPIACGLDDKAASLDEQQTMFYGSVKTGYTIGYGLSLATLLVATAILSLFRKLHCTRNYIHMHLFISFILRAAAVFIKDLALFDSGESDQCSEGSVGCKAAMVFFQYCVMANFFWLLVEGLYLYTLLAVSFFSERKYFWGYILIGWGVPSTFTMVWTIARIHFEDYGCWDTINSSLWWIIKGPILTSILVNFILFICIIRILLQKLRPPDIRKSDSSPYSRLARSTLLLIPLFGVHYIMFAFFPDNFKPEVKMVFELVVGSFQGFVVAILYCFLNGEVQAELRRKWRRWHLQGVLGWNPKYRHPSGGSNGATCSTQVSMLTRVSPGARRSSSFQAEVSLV

[17] = molecular target: Caspase-3 (Homo sapiens) (UniProt P42574); assay: Peptidase, CASP3 (Caspase 3) Eurofins-Panlabs enzyme assay; conditions: Compound concentration 10.0 uM
[18] = molecular target: T4, Aurora kinase C (Homo sapiens) (UniProt Q9UQB9); assay: AURKC (Aurora C) Kinase screen; conditions: Compound concentration 1.0 uM
T4 sequence (whole entry): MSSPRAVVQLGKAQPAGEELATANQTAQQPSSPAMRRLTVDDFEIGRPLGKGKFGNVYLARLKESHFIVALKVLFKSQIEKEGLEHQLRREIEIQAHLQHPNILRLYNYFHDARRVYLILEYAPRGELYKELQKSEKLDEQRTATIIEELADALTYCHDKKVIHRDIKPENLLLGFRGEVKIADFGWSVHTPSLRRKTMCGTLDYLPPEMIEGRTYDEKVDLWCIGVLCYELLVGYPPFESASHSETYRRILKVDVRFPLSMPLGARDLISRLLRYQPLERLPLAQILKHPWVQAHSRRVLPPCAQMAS

Measured: inhibition

C[C@@H]1CN(c2cc(-c3n[nH]c4ccc(OC5(C)CC5)cc34)ncn2)C[C@H](C)O1 [MLi-2]
inactive: [1] 4.76% | [2] 20.3% | [3] 7% | [4] 8.71% | [5] 0% | [6] 23% | [7] 2% | [8] 5.77% | [9] 5.68% | [10] -2.27% | [11] 0.91% | [12] 1.57% | [13] 2% | [14] -3% | [15] 8.93% | [16] 3% | [17] 12% | [18] 1.85%
